Test results published in article PMC9377007, “An Unexpected Deuterium-Induced Metabolic Switch in Doxophylline” (ACS Medicinal Chemistry Letters, 2022).

Assay: Levels of doxophylline metabolites in mice plasma
Type: in vivo
Source text: From an analysis of the levels of metabolites in mice plasma, it was seen that deuteration of the dioxolane ring (d4-doxophylline) triggered considerable alterations in the relative abundances of the metabolites generated. […] This is mainly related to a marked increase of the metabolic route 2, in which the electronic influence of the two oxygen atoms adjacent to the target sp^3 carbon atom greatly facilitates oxene attack and homolytic cleavage of the C–H bond.[29]
With regard to d7-doxophylline, only a semiquantitative determination was feasible because its metabolites (with the exception of theophylline) retain deuterium atoms (see the Supporting Information for structures). Indeed, the presence of deuterium lowers the signals in the electrospray ionization source, and the corresponding deuterated standards of the metabolites would have been necessary to perform an accurate quantification. Moreover, no reference standard was available for the quantification of the metabolites dm-doxophylline 9 and dh-doxophylline 10, and their relative abundances were expressed as peak areas of the corresponding accurate-mass ions.
• Comparative pharmacokinetic study
A total of 96 CD1 male mice, approximately 6 weeks old and with a body weight of approximately 30 g, were purchased from Envigo RMS srl, (San Pietro al Natisone, UD, Italy). […]
Protocol for drug administration and blood sampling.
Blood samples were collected under light isoflurane anaesthesia from the sublingual vein at the following time points (n=3): pre-dose and 5, 15, 30 minutes, 1, 2, 4, 8 and 24 hours after i.v. dosing (20 mg/Kg, dose volume 5 mL/Kg) and pre-dose and 15, 30 minutes, 1, 2, 4, 8 and 24 hours after oral gavage dosing (80 mg/Kg, dose volume 5 mL/Kg). Each animal was sampled on each day at a maximum of two alternating time points.
Samples were transferred into tubes containing K3EDTA as anticoagulant, centrifuged, and stored at -80 °C. […] Sample preparation for HPLC-MS analysis.
A volume of 50 µL of caffeine solution (1 mg/L in water-methanol 1:1) were added to plasma sample aliquots (50 µL); after the addition of the precipitant solution (100 µL of 10% ice-cold trichloroacetic acid in water), samples were centrifuged at 13,000 rpm for ten minutes and the supernatant injected onto the HPLC system (see supporting information for chromatographic conditions). If the levels of analytes were over range, plasma samples were preventively diluted with blank plasma.
Quantification of doxophylline and its deuterated analogues d4 and d7 as well as their main metabolites, 7-theophylline acetic acid (T-COOH), 7-hydroxyethyl theophylline (Eto) and theophylline, was performed by using the calibration curves obtained with the corresponding working standards of the analytes and using caffeine as internal standard.
The pharmacokinetic parameters for doxophylline and its deuterated analogues were calculated by plotting the plasma concentration curves versus time obtained from the average values of three animals, using PK Solver

SMILES | level of metabolite etophylline 7 versus doxophylline | plasmatic level of metabolite theophylline 1 versus doxophylline | level of dehydrogenated metabolite dh-doxophylline 10 versus doxophylline (peak area) | plasmatic level of metabolite dm-doxophylline 9 versus doxophylline (peak area) | levels of all metabolites except dm-doxophylline 9 versus doxophylline (semiquantitative determination)
[2H]C1([2H])OC(Cn2cnc3c2c(=O)n(C)c(=O)n3C)OC1([2H])[2H] [d4-doxophylline] | decreased level | significant increase | decrease | significant increase | 
[2H]C1([2H])OC([2H])(C([2H])([2H])n2cnc3c2c(=O)n(C)c(=O)n3C)OC1([2H])[2H] [d7-doxophylline] |  |  |  |  | diminished levels
